Literature values as cited in US20190359769A1, “PHARMACEUTICAL AGENT FOR IRON CHELATING” (Johannes Gutenberg-Universität Mainz, priority 2017, published 2019).
Values belong to the molecule of their own block, whether it stands above or below them.

Key:
[1] = Fe^3+ complex
[2] = in vivo
[3] = one study
[4] = studies on rats and humans

- logarithmic stability constant of iron complexes [1]: 30
- plasma half-life [2]: about 5 minutes
Compound: CC(=O)N(O)CCCCCNC(=O)CCC(=O)N(O)CCCCCNC(=O)CCC(=O)N(O)CCCCCN [DFO, Deferoxamine]

Compound: Cc1c(O)c(=O)ccn1C [DFP, Deferiprone]
- proportion of the DFP dose administered found in the urine in the form of inactive 3-O-glucoronide conjugates [3]: 85%

- physiological half-life [4]: 8-16 h
Compound: O=C(O)c1ccc(-n2nc(-c3ccccc3O)nc2-c2ccccc2O)cc1 [DFX, Deferasirox]
